Laboratory results from patent US10710994B2, “Oxadiazole transient receptor potential channel inhibitors” (Genentech, Inc., priority 2018, dated 2020).
Like-named read-outs stand apart in the source and are kept apart here.

Biological target: human TRPA1 channel (Homo sapiens (Human), UniProt O75762)
Test: hTRPA1 CHO Ca2+ FLIPR Tetra assay: block of cinnamaldehyde induced calcium influx
Format: cell-based
Settings: CHO cells expressing TRPA1, Hill coefficient fixed to 1.5
In short: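 TRPA1-expressing CHO cells loaded with calcium indicator dye (1 h 37° C, then 15 min room temperature) in HBSS/20 mM HEPES pH 7.4/0.02% BSA. IC50 from fits with fixed Hill coefficient.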

[1] = read-out: hTRPA1 IC50 90 min, 90 minutes incubation with compound before cinnamaldehyde (about EC80)
[2] = hTRPA1 IC50 10 min, 10 minutes incubation with compound before cinnamaldehyde (about EC80)
[3] = hTRPA1 IC50 90 min, 90 minutes incubation with compound before cinnamaldehyde (about EC80)
[4] = read-out: hTRPA1 IC50 10 min, 10 minutes incubation with compound before cinnamaldehyde (about EC80)

Sequence of human TRPA1 channel (O75762 whole entry): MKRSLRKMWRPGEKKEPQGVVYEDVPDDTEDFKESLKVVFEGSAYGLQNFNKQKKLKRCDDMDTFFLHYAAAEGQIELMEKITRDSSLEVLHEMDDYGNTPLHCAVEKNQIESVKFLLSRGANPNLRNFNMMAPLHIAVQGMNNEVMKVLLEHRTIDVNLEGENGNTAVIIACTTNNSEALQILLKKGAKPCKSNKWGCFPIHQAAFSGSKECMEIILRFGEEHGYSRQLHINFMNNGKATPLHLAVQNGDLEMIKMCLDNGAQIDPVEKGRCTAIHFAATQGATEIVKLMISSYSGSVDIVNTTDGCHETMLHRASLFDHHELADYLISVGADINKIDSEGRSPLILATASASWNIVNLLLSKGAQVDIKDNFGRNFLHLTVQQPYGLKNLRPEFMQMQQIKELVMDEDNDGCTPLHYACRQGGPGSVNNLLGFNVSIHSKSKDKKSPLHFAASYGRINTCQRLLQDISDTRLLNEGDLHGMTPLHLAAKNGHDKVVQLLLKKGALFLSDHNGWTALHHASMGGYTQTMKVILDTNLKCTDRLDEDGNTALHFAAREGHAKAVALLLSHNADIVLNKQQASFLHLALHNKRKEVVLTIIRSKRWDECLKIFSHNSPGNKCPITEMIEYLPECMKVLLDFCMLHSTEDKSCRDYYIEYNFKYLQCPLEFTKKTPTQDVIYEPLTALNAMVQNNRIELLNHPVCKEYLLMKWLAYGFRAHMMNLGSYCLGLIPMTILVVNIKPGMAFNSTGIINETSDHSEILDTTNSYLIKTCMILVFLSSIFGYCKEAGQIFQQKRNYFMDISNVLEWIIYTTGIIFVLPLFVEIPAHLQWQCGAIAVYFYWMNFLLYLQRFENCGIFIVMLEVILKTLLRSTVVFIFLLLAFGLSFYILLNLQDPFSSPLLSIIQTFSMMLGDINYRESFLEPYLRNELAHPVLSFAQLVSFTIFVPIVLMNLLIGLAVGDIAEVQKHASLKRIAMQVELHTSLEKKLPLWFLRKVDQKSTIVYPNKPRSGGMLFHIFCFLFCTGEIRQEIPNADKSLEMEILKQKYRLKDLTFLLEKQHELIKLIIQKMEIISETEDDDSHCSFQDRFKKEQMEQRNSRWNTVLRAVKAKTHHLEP

Compound	IC50 [1]	IC50 [4]	IC50 [2]	IC50 [3]
O=c1c2cccc(=O)n2cnn1Cc1nc([C@@H]2CO[C@@H](c3ccc(Cl)cc3)C2)no1 [Example 82, 2-((3-((3R,5R)-5-(4-chlorophenyl)tetrahydro-furan-3-yl)-1,2,4-oxadiazol-5-yl)methyl)-2H-pyrido [1,2-d][1,2,4]triazine-1,6-dione]	2.4 nM			
Cn1cnc2ncn(Cc3nc([C@@H]4CO[C@@H](c5cc(F)c(Cl)c(F)c5)C4)no3)c(=O)c21 [Example 83, 1-((3-((3R,5R)-5-(4-chloro-3,5-difluorophenyl)tetrahydrofuran-3-yl)-1,2,4-oxadiazol-5-yl)methyl)-7-methyl-1,7-dihydro-6H-purin-6-one]			47.4 nM	13 nM
Cc1ncn2nc(N)n(Cc3nc([C@@H]4CO[C@@H](c5ccc(Cl)cc5)C4)no3)c(=O)c12 [Example 84, 2-amino-3-((3-((3R,5R)-5-(4-chlorophenyl)tetra-hydrofuran-3-yl)-1,2,4-oxadiazol-5-yl)methyl)-5-methylimidazo[5,1-f] [1,2,4]triazin-4(3H)-one]	4.6 nM	142 nM		
CN1CCc2c(ncn(Cc3nc([C@@H]4CO[C@@H](c5ccc(Cl)cc5)C4)no3)c2=O)C1 [Example 88, 3-((3-((3R,5R)-5-(4-chlorophenyl)tetrahydro-furan-3-yl)-1,2,4-oxadiazol-5-yl)methyl)-7-methyl-5,6,7,8-tetrahydropyrido [3,4-d]pyrimidin-4(3H)-one]	450 nM	2720 nM		
Nc1nc2ncccc2c(=O)n1Cc1nc([C@@H]2CO[C@@H](c3ccc(F)cc3)C2)no1 [Example 89, 2-amino-3-((3-((3R,5R)-5-(4-fluorophenyl)tetrahydrofuran-3-yl)-1,2,4-oxadiazol-5-yl)methyl) pyrido[2,3-d]pyrimidin-4(3H)-one]	2.9 nM	18.7 nM		
O=c1c2ccnnc2ncn1Cc1nc([C@@H]2CO[C@@H](c3ccc(F)cc3)C2)no1 [Example 103, 6-[[3-[(3R,5R)-5-(4-fluorophenyl)tetrahydro-furan-3-yl]-1,2,4-oxadiazol-5-yl]methyl]pyrimido[4,5-c]pyridazin-5-one]	89 nM	71.7 nM		
Cc1ccnc2cnn(Cc3nc([C@@H]4CO[C@@H](c5ccc(F)cc5)C4)no3)c(=O)c12 [Example 104, 6-[[3-[(3R,5R)-5-(4-fluorophenyl)tetrahydro-furan-3-yl]-1,2,4-oxadiazol-5-yl]methyl]-4-methyl-pyrido[2,3-d] pyridazin-5-one]	6.7 nM	7.2 nM		
Cc1nc2nc(C)n(C)c2c(=O)n1Cc1nc([C@@H]2CO[C@@H](c3ccc(Cl)cc3)C2)no1 [Example 109, 1-((3-((3R,5R)-5-(4-chlorophenyl)tetrahydro-furan-3-yl)-1,2,4-oxadiazol-5-yl)methyl)-2,7,8-trimethyl-1,7-dihydro-6H-purin-6-one]	62 nM	85 nM		
[2H]c1nc2nc(C)n(Cc3nc([C@@H]4CO[C@@H](c5ccc(Cl)cc5)C4)no3)c(=O)c2n1C [Example 110, 1-((3-((3R,5R)-5-(4-chlorophenyl)tetrahydro-furan-3-yl)-1,2,4-oxadiazol-5-yl)methyl)-2,7-dimethyl-1,7-dihydro-6H-purin-6-one-8-d]			9.32 nM	3.9 nM
Cc1nc2[nH]c(=O)n(C)c2c(=O)n1Cc1nc([C@@H]2CO[C@@H](c3ccc(Cl)cc3)C2)no1 [Example 111, 1-((3-((3R,5R)-5-(4-chlorophenyl)tetrahydro-furan-3-yl)-1,2,4-oxadiazol-5-yl)methyl)-2,7-dimethyl-7,9-dihydro-1H-purine-6,8-dione]	34 nM	85.8 nM		
Nc1nc2ncccc2c(=O)n1Cc1nc([C@@H]2CO[C@@H](c3cccc(F)c3)C2)no1 [Example 119, 2-amino-3-((3-((3R,5R)-5-(3-fluorophenyl)tetrahydro-furan-3-yl)-1,2,4-oxadiazol-5-yl)methyl) pyrido[2,3-d]pyrimidin-4(3H)-one]	13 nM	31.9 nM		
Cn1cnc2nc(N)n(Cc3nc([C@@H]4CO[C@@H](c5ccc(Cl)cc5)C4)no3)c2c1=O [Example 123, 8-amino-7-((3-((3R,5R)-5-(4-chlorophenyl)tetrahydro-furan-3-yl)-1,2,4-oxadiazol-5-yl)methyl)-1-methyl-1,7-dihydro-6H-purin-6-one]	17 nM	126 nM		

More lines, main results first:

IC50 [1]	IC50 [4]	Compound	IC50 [2]	IC50 [3]
75 nM		Cc1nc(N)n2ncn(Cc3nc([C@@H]4CO[C@@H](c5ccc(F)cc5)C4)no3)c(=O)c12 [Example 81, 7-amino-3-((3-((3R,5R)-5-(4-fluorophenyl)tetrahydro-furan-3-yl)-1,2,4-oxadiazol-5-yl)methyl)-5-methyl-imidazo[5,1-f][1,2,4]triazin-4(3H)-one]		
6 nM	15.5 nM	Cc1ncn2nc(N)n(Cc3nc([C@@H]4CO[C@@H](c5ccc(F)cc5)C4)no3)c(=O)c12 [Example 85, 2-amino-3-((3-((3R,5R)-5-(4-fluorophenyl)tetra-hydrofuran-3-yl)-1,2,4-oxadiazol-5-yl)methyl)-5-methylimidazo[5,1-f] [1,2,4]triazin-4(3H)-one]		
930 nM	1560 nM	Cn1cnc2ncn(Cc3nc([C@@H]4CO[C@@H](c5ccc(S(F)(F)(F)(F)F)cc5)C4)no3)c(=O)c21 [Example 86, 7-methyl-1-((3-((3R,5R)-5-(4-(pentafluoro-l6-sulfanyl)phenyl)tetrahydro-furan-3-yl)-1,2,4-oxadiazol-5-yl)methyl)-1,7-dihydro-6H-purin-6-one]		
3.5 nM	10.5 nM	Nc1ccc2c(=O)n(Cc3nc([C@@H]4CO[C@@H](c5ccc(Cl)cc5)C4)no3)ncc2n1 [Example 87, 2-amino-6-((3-((3R,5R)-5-(4-chlorophenyl)tetra-hydrofuran-3-yl)-1,2,4-oxadiazol-5-yl)methyl) pyrido[2,3-d]pyridazin-5(6H)-one]		
3.8 nM	10.8 nM	Nc1nc2nccnc2n1Cc1nc([C@@H]2CO[C@@H](c3ccc(Cl)cc3)C2)no1 [Example 112, 1-((3-((3R,5R)-5-(4-chlorophenyl)tetrahydro-furan-3-yl)-1,2,4-oxadiazol-5-yl)methyl)-1H-imidazo[4,5-b] pyrazin-2-amine]		
22 nM	37.8 nM	Cc1nc2nc(Cl)n(C)c2c(=O)n1Cc1nc([C@@H]2CO[C@@H](c3ccc(Cl)cc3)C2)no1 [Example 114, 8-chloro-1-((3-((3R,5R)-5-(4-chlorophenyl)tetrahydrofuran-3-yl)-1,2,4-oxadiazol-5-yl)methyl)-2,7-dimethyl-1,7-dihydro-6H-purin-6-one]		
40 nM	94.9 nM	N#Cc1cnn2ncn(Cc3nc([C@@H]4CO[C@@H](c5ccc(Cl)cc5)C4)no3)c(=O)c12 [Example 115, 3-((3-((3R,5R)-5-(4-chlorophenyl)tetrahydro-furan-3-yl)-1,2,4-oxadiazol-5-yl)methyl)-4-oxo-3,4-dihydro-pyrazolo[5,1-f][1,2,4] triazine-5-carbonitrile]		
39 nM	76.5 nM	Cn1cnc2c(C(N)=O)nn(Cc3nc([C@@H]4CO[C@@H](c5ccc(Cl)cc5)C4)no3)c(=O)c21 [Example 116, 6-((3-((3R,5R)-5-(4-chlorophenyl)tetrahydro-furan-3-yl)-1,2,4-oxadiazol-5-yl)methyl)-1-methyl-7-oxo-6,7-dihydro-1H-imidazo [4,5-d]pyridazine-4-carboxamide]		
5.9 nM	11.3 nM	Cc1n[nH]c2ncn(Cc3nc([C@@H]4CO[C@@H](c5ccc(Cl)cc5)C4)no3)c(=O)c12 [Example 117, 5-((3-((3R,5R)-5-(4-chlorophenyl)tetrahydro-furan-3-yl)-1,2,4-oxadiazol-5-yl)methyl)-3-methyl-1,5-dihydro-4H-pyrazolo[3,4-d] pyrimidin-4-one]		
47 nM	96.4 nM	O=C1CCc2c(ncn(Cc3nc([C@@H]4CO[C@@H](c5ccc(Cl)cc5)C4)no3)c2=O)N1 [Example 118, 3-((3-((3R,5R)-5-(4-chlorophenyl)tetrahydro-furan-3-yl)-1,2,4-oxadiazol-5-yl)methyl)-5,8-dihydropyrido[2,3-d] pyrimidine-4,7(3H,6H)-dione]		
20 nM	29.4 nM	Cn1cnc2nc(Cl)n(Cc3nc([C@@H]4CO[C@@H](c5ccc(Cl)cc5)C4)no3)c(=O)c21 [Example 120, 2-chloro-1-((3-((3R,5R)-5-(4-chlorophenyl)tetrahydro-furan-3-yl)-1,2,4-oxadiazol-5-yl)methyl)-7-methyl-1,7-dihydro-6H-purin-6-one]		
49 nM	111 nM	Cn1nncc1C(=O)NCc1nc([C@@H]2CO[C@@H](c3ccc(Cl)cc3)C2)no1 [Example 121, N-((3-((3R,5R)-5-(4-chlorophenyl)tetrahydro-furan-3-yl)-1,2,4-oxadiazol-5-yl)methyl)-1-methyl-1H-1,2,3-triazole-5-carboxamide]		
39 nM	75.8 nM	Cc1cnn2ncn(Cc3nc([C@@H]4CO[C@@H](c5ccc(C#N)cc5)C4)no3)c(=O)c12 [Example 122, 4-((2R,4R)-4-(5-((5-methyl-4-oxopyrazolo[5,1-f][1,2,4]triazin-3(4H)-yl)methyl)-1,2,4-oxadiazol-3-yl)tetrahydrofuran-2-yl)benzonitrile]		
16 nM	12.7 nM	O=c1ccc2c(=O)n(Cc3nc([C@@H]4CO[C@@H](c5ccc(Cl)cc5)C4)no3)cnc2[nH]1 [Example 124, 3-((3-((3R,5R)-5-(4-chlorophenyl)tetrahydro-furan-3-yl)-1,2,4-oxadiazol-5-yl)methyl) pyrido[2,3-d]pyrimidine-4,7(3H,8H)-dione]		
